Assay results from US20200000825A1, “METHODS AND COMPOSITIONS FOR TREATING AND PREVENTING VIRAL INFECTIONS” (ENTERIN LABORATORIES, INC., priority 2009, published 2020).

test system: HUVECs; assay: Thrombin induced stress fiber formation in endothelial cells; format: cell-based, human; conditions: aminosterol 20 μM, thrombin 20 ng/ml, 2 hours
Procedure: The basic methods have been published (Williams, […] et al. 2001). HUVECs were grown on fibronectin-covered coverslips in EGM medium. […] Following a rinse, the cells were exposed to a 1:400 dilution of an FITC-goat antimurine antibody and 250 ng/ml TRITC phalloidin. The stained coverslips were visualized by fluorescence microscopy.

SMILES	Disruption of thrombin induced stress fiber formation
CC(C)[C@@H](CC[C@H](C)[C@H]1CC[C@H]2[C@@H]3[C@H](O)C[C@H]4C[C@@H](NCCCNCCCCN)CC[C@]4(C)[C@H]3CC[C@]12C)OS(=O)(=O)O [Compound D]	not observed and inactive and No
CC(C)[C@@H](CC[C@@H](C)[C@H]1CC[C@H]2[C@@H]3[C@@H](O)C[C@H]4C[C@@H](NCCCNCCCCN)CC[C@]4(C)[C@H]3CC[C@]12C)OS(=O)(=O)O [Compound A]	disrupt thrombin induced stress fiber formation and inhibited thrombin-induced stress fiber formation and Yes
CC(C)[C@@H](CC[C@@H](C)[C@H]1CC[C@H]2[C@@H]3[C@H](O)C[C@H]4C[C@H](NCCCNCCCCN)CC[C@]4(C)[C@H]3CC[C@]12C)OS(=O)(=O)O [Compound B]	disrupt thrombin induced stress fiber formation and inhibited thrombin-induced stress fiber formation and Yes
CC(C)[C@@H](CC[C@@H](C)[C@H]1CC[C@H]2[C@@H]3[C@H](O)C[C@H]4C[C@@H](NCCCOCCCN)CC[C@]4(C)[C@H]3CC[C@]12C)OS(=O)(=O)O [Compound F]	not observed and No
CC(C)[C@@H](CC[C@@H](C)[C@H]1CC[C@H]2[C@@H]3[C@H](O)C[C@H]4CC(N)CC[C@]4(C)[C@H]3CC[C@]12C)OS(=O)(=O)O (stereo partly drawn) [Compound E]	not observed and No
CC(C)[C@H](CC[C@@H](C)[C@H]1CC[C@H]2[C@@H]3[C@H](O)C[C@H]4C[C@@H](NCCCNCCCCN)CC[C@]4(C)[C@H]3CC[C@]12C)OS(=O)(=O)O [Compound C]	disrupt thrombin induced stress fiber formation and inhibited thrombin-induced stress fiber formation and Yes
